Tests used:
Assay in all cases: relative viability (nuclei count vs DMSO), 5 days (fraction); higher = more cells survive
[1] = compound: O=C(/C=C/c1ccccc1)NC(NC(=S)Nc1cccc2cccnc12)C(Cl)(Cl)Cl [Salubrinal] + Cc1cc(Nc2cc(N3CCN(C)CC3)nc(Sc3ccc(NC(=O)C4CC4)cc3)n2)n[nH]1 [Tozasertib] (partner 0.1 µM)
Method in brief: (§1)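 Lung cancer cell lines were seeded in 1536-well plates and dosed by pin tool the next day, with either a single drug or a fixed anchor-drug dose combined with five library-drug doses (not always all listed) spaced in √10 steps. Five days later, one step fixed the cells and stained their nuclei (final 0.05% Triton X-100, 1% formaldehyde, 1 ug/ml Hoechst), and nuclei were counted on 4× images. Relative viability is the nuclei count in treated wells divided by the count in vehicle wells, and each value is the median of duplicate plates.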

[2] = compound: O=C(/C=C/c1ccccc1)NC(NC(=S)Nc1cccc2cccnc12)C(Cl)(Cl)Cl [Salubrinal] + Cc1nc(NC(=O)N2CCC[C@H]2C(N)=O)sc1-c1ccnc(C(C)(C)C(F)(F)F)c1 [Alpelisib] (partner 2 µM)
Method in brief: as §1

[3] = compound: O=C(/C=C/c1ccccc1)NC(NC(=S)Nc1cccc2cccnc12)C(Cl)(Cl)Cl [Salubrinal] + N=C(N)NC(=N)NCCc1ccccc1 [Phenformin] (partner 250 µM)
Method in brief: as §1

[4] = compound: O=C(/C=C/c1ccccc1)NC(NC(=S)Nc1cccc2cccnc12)C(Cl)(Cl)Cl [Salubrinal] + CC(=O)c1c(C)c2cnc(Nc3ccc(N4CCNCC4)cn3)nc2n(C2CCCC2)c1=O [Palbociclib] (partner 0.5 µM)
Method in brief: as §1

Cell Line	relative viability ([1]; first compound 0.08 µM)	relative viability ([1]; first compound 0.253 µM)	relative viability ([1]; first compound 0.8 µM)	relative viability ([1]; first compound 2.53 µM)	relative viability ([1]; first compound 8 µM)	relative viability ([2]; first compound 0.08 µM)	relative viability ([2]; first compound 0.253 µM)	relative viability ([2]; first compound 0.8 µM)	relative viability ([2]; first compound 2.53 µM)	relative viability ([2]; first compound 8 µM)	relative viability ([3]; first compound 0.08 µM)	relative viability ([3]; first compound 0.253 µM)	relative viability ([3]; first compound 0.8 µM)	relative viability ([3]; first compound 2.53 µM)	relative viability ([3]; first compound 8 µM)	relative viability ([4]; first compound 0.08 µM)	relative viability ([4]; first compound 0.253 µM)	relative viability ([4]; first compound 0.8 µM)	relative viability ([4]; first compound 2.53 µM)	relative viability ([4]; first compound 8 µM)
NCI-H596	0.968	1.1	0.897	0.909	0.806	0.55	0.426	0.441	0.572	0.528	0.98	0.703	0.68	0.757	0.704	–	–	–	–	–
A-427	0.22	0.226	0.227	0.227	0.21	1.06	1.16	1.17	1.16	1.15	0.326	0.336	0.382	0.292	0.28	0.57	0.527	0.562	0.502	0.538
EMC-BAC-2	0.239	0.289	0.313	0.255	0.261	0.802	0.709	0.786	0.82	0.702	0.471	0.326	0.601	0.513	0.493	0.493	0.493	0.541	0.525	0.524
NCI-H441	0.554	0.431	0.74	0.576	0.448	0.832	0.61	1.01	0.709	0.645	0.939	0.855	0.892	0.755	0.72	0.222	0.189	0.313	0.23	0.201
LCLC-103H	0.487	0.445	0.404	0.498	0.42	0.953	0.917	1.05	1.02	0.932	0.388	0.282	0.318	0.38	0.308	0.469	0.491	0.469	0.453	0.467
HCC-827	0.429	0.423	0.406	0.417	0.432	0.995	1.07	0.954	0.985	0.963	0.408	0.521	0.356	0.392	0.341	0.49	0.441	0.514	0.475	0.48
NCI-H1355	0.697	0.519	0.524	0.498	0.477	0.955	0.942	0.884	0.852	0.779	0.424	0.426	0.475	0.456	0.44	0.423	0.472	0.412	0.402	0.364
NCI-H1734	0.304	0.256	0.294	0.274	0.268	0.721	0.695	0.833	0.737	0.749	0.416	0.375	0.412	0.429	0.366	0.393	0.334	0.392	0.344	0.343
HARA	0.122	0.108	0.111	0.0979	0.106	0.948	0.931	0.848	0.937	0.78	0.607	0.484	0.483	0.445	0.47	0.294	0.281	0.252	0.269	0.236
HCC-15	0.481	0.332	0.41	0.438	0.257	0.988	0.789	0.994	0.94	0.945	0.524	0.431	0.533	0.487	0.391	0.832	0.589	0.844	0.777	0.703
LCLC-97TM1	0.238	0.157	0.266	0.188	0.165	0.258	0.302	0.254	–	0.276	0.388	0.413	0.435	0.462	0.488	0.236	0.224	0.221	0.227	0.265
RERF-LC-KJ	0.584	0.433	0.513	0.435	0.285	0.912	0.824	0.925	0.813	0.698	0.442	0.39	0.414	0.408	0.413	1.14	1.04	1.13	1.09	0.964
NCI-H1651	0.711	0.639	0.776	0.608	0.734	1.02	0.565	1.07	–	1.02	0.311	0.237	0.345	0.296	0.267	0.561	0.479	0.564	0.513	0.508
NCI-H1793	0.504	0.637	0.234	0.26	0.326	1	0.722	0.837	0.798	0.617	0.446	0.349	0.391	0.394	0.33	0.366	0.37	0.323	0.284	0.287
NCI-H2023	0.323	0.286	0.323	0.236	0.182	0.679	0.586	0.688	0.587	0.488	0.471	0.37	0.461	0.368	0.276	0.346	0.32	0.359	0.419	0.328
LC-2-ad	0.45	0.449	0.478	0.408	0.354	1.01	0.784	0.92	0.881	0.831	0.65	0.609	0.744	0.621	0.596	0.499	0.403	0.586	0.478	0.403
NCI-H1703	–	–	–	–	–	0.394	0.359	0.324	0.365	0.374	–	–	–	–	–	–	–	–	–	–

Reference: the supplement of paper PMC10307832
